Source: PMC4823954, “From fighting depression to conquering tumors: a novel tricyclic thiazepine compound as a tubulin polymerization inhibitor” (Cell Death & Disease, 2016)

Experiments:
Experiment in all cases: KINOMEscan
Assay type in all cases: binding
Details in all cases: read-out: % Ctrl
[1] = target: T1, ABL1(F317L)-nonphosphorylated (Homo sapiens, UniProt P00519, F317L)
T1 construct: purchased DiscoveRx KINOMEscan
Procedure: (§1) The binding assay for 442 non-mutant kinases was performed using KINOMEscan (DiscoveRx Corporation, Fremont, CA, USA) as reported previously.[58], [59] TBPT was screened at concentrations of 5 and 10 μM to identify the affected kinases. KINOMEscan is based on a competition reaction that quantitatively measures the ability of a test compound to compete with an active site-directed ligand for binding to the kinase active site. […] After the assay plates were incubated with shaking for 1 h, the liganded beads were washed with washing buffer (1 × PBS and 0.05% Tween 20). Then, the beads were re-suspended in elution buffer (1 × PBS, 0.05% Tween 20, and 0.5 μM ligand) and incubated with shaking for 30 min. The kinase concentration in the eluates was measured via qPCR. The results are represented as ‘%Ctrl', which was calculated using the following formula: (test compound signal–positive control signal)/(DMSO signal–positive control signal) × 100%. A lower % Ctrl indicates stronger binding to the kinase active site.

[2] = target: T2, ABL1(T315I)-phosphorylated (Homo sapiens, UniProt P00519, T315I)
T2 construct: purchased DiscoveRx KINOMEscan
Procedure: as §1

[3] = target: T3, AKT3 (Homo sapiens, UniProt Q9Y243)
T3 construct: purchased DiscoveRx KINOMEscan
Procedure: as §1

[4] = target: T4, AURKB (Homo sapiens, UniProt Q96GD4)
T4 construct: purchased DiscoveRx KINOMEscan
Procedure: as §1

[5] = target: T5, AURKC (Homo sapiens, UniProt Q9UQB9)
T5 construct: purchased DiscoveRx KINOMEscan
Procedure: as §1

[6] = target: T6, CLK2 (Homo sapiens, UniProt P49760)
T6 construct: purchased DiscoveRx KINOMEscan
Procedure: as §1

[7] = target: T7, CSNK1G1 (Homo sapiens, UniProt Q9HCP0)
T7 construct: purchased DiscoveRx KINOMEscan
Procedure: as §1

[8] = target: T8, CSNK2A1 (Homo sapiens, UniProt P68400)
T8 construct: purchased DiscoveRx KINOMEscan
Procedure: as §1

[9] = target: T9, CSNK2A2 (Homo sapiens, UniProt P19784)
T9 construct: purchased DiscoveRx KINOMEscan
Procedure: as §1

[10] = target: T10, EPHA1 (Homo sapiens, UniProt P21709)
T10 construct: purchased DiscoveRx KINOMEscan
Procedure: as §1

[11] = target: T11, EPHA6 (Homo sapiens, UniProt Q9UF33)
T11 construct: purchased DiscoveRx KINOMEscan
Procedure: as §1

[12] = target: T12, ERK2 (Homo sapiens, UniProt P28482)
T12 construct: purchased DiscoveRx KINOMEscan
Procedure: as §1

[13] = target: T13, FGFR2 (Homo sapiens, UniProt P21802)
T13 construct: purchased DiscoveRx KINOMEscan
Procedure: as §1

[14] = target: T14, HIPK3 (Homo sapiens, UniProt Q9H422)
T14 construct: purchased DiscoveRx KINOMEscan
Procedure: as §1

[15] = target: T15, JAK3(JH1domain-catalytic) (Homo sapiens, UniProt P52333)
T15 construct: JAK3(JH1domain-catalytic); purchased DiscoveRx KINOMEscan
Procedure: as §1

[16] = target: T16, JNK2 (Homo sapiens, UniProt P45984)
T16 construct: purchased DiscoveRx KINOMEscan
Procedure: as §1

[17] = target: T17, LATS1 (Homo sapiens, UniProt O95835)
T17 construct: purchased DiscoveRx KINOMEscan
Procedure: as §1

[18] = target: T18, LATS2 (Homo sapiens, UniProt Q9NRM7)
T18 construct: purchased DiscoveRx KINOMEscan
Procedure: as §1

[19] = target: T19, MAP3K3 (Homo sapiens, UniProt Q99759)
T19 construct: purchased DiscoveRx KINOMEscan
Procedure: as §1

[20] = target: T20, MAPKAPK2 (Homo sapiens, UniProt P49137)
T20 construct: purchased DiscoveRx KINOMEscan
Procedure: as §1

[21] = target: T21, MAST1 (Homo sapiens, UniProt Q9Y2H9)
T21 construct: purchased DiscoveRx KINOMEscan
Procedure: as §1

[22] = target: T22, MST1R (Homo sapiens, UniProt Q04912)
T22 construct: purchased DiscoveRx KINOMEscan
Procedure: as §1

[23] = target: T23, MTOR (Homo sapiens, UniProt P42345)
T23 construct: purchased DiscoveRx KINOMEscan
Procedure: as §1

[24] = target: T24, PKN1 (Homo sapiens, UniProt Q16512)
T24 construct: purchased DiscoveRx KINOMEscan
Procedure: as §1

[25] = target: T25, PRKCQ (Homo sapiens, UniProt Q04759)
T25 construct: purchased DiscoveRx KINOMEscan
Procedure: as §1

[26] = target: T26, RSK1(Kin.Dom.1-N-terminal) (Homo sapiens, UniProt Q15418)
T26 construct: RSK1(Kin.Dom.1-N-terminal); purchased DiscoveRx KINOMEscan
Procedure: as §1

[27] = target: T27, STK36 (Homo sapiens, UniProt Q9NRP7)
T27 construct: purchased DiscoveRx KINOMEscan
Procedure: as §1

[28] = target: T28, SYK (Homo sapiens, UniProt P43405)
T28 construct: purchased DiscoveRx KINOMEscan
Procedure: as §1

[29] = target: T29, YANK3 (Homo sapiens, UniProt Q86UX6)
T29 construct: purchased DiscoveRx KINOMEscan
Procedure: as §1

T26 sequence (Q15418 1-391 limits assumed): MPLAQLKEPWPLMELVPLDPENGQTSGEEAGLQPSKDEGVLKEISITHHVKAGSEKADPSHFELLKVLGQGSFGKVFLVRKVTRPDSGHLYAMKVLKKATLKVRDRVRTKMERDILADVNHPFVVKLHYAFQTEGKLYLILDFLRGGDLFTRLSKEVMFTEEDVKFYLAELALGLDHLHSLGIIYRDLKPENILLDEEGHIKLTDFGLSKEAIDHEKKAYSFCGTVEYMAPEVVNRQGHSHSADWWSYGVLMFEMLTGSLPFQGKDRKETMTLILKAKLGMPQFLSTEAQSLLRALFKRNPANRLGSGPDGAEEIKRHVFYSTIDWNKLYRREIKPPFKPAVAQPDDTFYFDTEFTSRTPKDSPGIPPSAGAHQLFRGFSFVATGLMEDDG
T17 sequence (O95835 whole entry): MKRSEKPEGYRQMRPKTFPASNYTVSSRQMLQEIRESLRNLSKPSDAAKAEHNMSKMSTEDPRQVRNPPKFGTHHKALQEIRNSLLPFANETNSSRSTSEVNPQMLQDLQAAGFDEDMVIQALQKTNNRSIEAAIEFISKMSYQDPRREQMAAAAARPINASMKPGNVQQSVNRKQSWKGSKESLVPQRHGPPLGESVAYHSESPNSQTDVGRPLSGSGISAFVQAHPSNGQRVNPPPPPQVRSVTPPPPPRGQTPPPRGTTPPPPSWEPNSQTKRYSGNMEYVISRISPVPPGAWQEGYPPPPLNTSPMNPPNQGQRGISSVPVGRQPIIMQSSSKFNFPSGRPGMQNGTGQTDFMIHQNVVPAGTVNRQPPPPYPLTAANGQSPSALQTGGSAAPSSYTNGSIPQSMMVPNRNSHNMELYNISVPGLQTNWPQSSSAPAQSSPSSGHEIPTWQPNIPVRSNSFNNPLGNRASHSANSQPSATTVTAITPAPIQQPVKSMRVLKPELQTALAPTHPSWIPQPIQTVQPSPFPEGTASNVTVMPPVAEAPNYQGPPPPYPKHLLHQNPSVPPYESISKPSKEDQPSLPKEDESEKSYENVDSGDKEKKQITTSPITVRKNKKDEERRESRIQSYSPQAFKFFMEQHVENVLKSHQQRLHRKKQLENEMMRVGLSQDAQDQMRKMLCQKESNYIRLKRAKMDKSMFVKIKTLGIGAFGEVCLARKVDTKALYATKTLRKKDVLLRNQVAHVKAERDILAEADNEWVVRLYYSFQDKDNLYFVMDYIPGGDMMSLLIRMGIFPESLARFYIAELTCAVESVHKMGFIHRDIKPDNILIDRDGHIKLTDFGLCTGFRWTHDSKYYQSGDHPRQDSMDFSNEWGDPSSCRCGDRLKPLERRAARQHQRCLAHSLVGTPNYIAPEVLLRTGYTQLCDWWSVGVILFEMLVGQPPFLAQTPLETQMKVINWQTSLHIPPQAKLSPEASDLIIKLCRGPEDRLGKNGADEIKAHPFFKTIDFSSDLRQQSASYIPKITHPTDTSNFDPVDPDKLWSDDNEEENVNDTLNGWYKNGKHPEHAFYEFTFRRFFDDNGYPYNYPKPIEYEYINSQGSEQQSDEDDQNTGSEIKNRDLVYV
T13 sequence (P21802 22-821): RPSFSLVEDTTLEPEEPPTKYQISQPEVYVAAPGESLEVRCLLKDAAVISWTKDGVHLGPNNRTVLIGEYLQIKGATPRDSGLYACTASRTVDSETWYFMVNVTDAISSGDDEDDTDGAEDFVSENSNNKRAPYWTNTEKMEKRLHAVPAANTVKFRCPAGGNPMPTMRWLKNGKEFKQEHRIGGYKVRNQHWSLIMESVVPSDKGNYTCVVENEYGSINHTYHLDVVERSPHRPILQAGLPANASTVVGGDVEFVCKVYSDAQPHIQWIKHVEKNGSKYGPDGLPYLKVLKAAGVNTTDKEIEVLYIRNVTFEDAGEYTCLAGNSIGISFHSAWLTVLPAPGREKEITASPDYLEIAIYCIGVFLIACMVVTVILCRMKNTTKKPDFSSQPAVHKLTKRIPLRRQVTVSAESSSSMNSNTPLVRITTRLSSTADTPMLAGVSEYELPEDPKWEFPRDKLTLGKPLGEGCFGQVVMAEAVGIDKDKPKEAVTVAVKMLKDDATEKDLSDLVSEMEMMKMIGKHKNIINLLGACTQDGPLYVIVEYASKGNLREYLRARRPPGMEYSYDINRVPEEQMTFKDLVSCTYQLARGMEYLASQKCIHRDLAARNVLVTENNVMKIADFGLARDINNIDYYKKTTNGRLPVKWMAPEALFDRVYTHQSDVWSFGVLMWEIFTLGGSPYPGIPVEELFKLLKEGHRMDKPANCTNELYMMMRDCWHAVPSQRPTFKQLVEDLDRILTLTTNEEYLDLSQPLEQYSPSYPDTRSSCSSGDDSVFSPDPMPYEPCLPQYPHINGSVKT
T20 sequence (P49137 whole entry): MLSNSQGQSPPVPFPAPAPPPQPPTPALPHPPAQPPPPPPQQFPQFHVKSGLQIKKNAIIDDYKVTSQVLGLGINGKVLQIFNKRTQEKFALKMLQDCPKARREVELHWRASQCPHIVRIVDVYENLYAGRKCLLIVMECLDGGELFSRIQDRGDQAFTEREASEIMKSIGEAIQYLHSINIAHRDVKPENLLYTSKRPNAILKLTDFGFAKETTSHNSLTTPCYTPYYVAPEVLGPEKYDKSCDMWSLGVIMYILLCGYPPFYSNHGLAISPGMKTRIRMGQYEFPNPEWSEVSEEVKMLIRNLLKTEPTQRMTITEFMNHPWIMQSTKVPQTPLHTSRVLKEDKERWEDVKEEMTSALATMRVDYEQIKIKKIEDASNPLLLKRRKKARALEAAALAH
T25 sequence (Q04759 whole entry): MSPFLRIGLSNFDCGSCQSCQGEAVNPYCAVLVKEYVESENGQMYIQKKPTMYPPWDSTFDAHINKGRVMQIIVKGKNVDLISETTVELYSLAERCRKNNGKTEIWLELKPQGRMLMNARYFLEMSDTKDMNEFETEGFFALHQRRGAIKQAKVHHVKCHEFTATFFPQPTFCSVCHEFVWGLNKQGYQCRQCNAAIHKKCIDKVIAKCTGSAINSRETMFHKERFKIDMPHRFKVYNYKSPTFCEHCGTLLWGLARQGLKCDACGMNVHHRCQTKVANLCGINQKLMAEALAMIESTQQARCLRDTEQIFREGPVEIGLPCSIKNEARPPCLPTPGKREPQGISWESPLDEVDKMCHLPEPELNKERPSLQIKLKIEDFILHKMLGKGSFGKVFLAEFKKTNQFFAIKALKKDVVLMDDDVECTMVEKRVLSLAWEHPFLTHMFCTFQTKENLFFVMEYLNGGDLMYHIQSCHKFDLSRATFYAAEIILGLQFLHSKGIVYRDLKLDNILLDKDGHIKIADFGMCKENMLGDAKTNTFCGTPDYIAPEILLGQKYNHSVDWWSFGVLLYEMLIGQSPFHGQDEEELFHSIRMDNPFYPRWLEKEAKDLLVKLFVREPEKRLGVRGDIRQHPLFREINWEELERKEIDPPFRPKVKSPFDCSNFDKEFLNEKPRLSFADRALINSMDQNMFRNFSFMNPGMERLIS
T16 sequence (P45984 whole entry): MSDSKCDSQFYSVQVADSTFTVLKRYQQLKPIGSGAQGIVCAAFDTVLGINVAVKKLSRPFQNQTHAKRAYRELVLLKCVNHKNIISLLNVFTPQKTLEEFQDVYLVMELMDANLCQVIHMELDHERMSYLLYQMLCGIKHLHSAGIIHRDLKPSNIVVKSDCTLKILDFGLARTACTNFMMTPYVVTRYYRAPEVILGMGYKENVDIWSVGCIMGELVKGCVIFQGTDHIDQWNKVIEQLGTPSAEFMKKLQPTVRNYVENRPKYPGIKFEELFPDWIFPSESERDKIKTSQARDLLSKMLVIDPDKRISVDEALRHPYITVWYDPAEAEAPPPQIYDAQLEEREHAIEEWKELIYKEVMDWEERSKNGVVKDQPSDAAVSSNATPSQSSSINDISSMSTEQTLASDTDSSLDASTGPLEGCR
T18 sequence (Q9NRM7 whole entry): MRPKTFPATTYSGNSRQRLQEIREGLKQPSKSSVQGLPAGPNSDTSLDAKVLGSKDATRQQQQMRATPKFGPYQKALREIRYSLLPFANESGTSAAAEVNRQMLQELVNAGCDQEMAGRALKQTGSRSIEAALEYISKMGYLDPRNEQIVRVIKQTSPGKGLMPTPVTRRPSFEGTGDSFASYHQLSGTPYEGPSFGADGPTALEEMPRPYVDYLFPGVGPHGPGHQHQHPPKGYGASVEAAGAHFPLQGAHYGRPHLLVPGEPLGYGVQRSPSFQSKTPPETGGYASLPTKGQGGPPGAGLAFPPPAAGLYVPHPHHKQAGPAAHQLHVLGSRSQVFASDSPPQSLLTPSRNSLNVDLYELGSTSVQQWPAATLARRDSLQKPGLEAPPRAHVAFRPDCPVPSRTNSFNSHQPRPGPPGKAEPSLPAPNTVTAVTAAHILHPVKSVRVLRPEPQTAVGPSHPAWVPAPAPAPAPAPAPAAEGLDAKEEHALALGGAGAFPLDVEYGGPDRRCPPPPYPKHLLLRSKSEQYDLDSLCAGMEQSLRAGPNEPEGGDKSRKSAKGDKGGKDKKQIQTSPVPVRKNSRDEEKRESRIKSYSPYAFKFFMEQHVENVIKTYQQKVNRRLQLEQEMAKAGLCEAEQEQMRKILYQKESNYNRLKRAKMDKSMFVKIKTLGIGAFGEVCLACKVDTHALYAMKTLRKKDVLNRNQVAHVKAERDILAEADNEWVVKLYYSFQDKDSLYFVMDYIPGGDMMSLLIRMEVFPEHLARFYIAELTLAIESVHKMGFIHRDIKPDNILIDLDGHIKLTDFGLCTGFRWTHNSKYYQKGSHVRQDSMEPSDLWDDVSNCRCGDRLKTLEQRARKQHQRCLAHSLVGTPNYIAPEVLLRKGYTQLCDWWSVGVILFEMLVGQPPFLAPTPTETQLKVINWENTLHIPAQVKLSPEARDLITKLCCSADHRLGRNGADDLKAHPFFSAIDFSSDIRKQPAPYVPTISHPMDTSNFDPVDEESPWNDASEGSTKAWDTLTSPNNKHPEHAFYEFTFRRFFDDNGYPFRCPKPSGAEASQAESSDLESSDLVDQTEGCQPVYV

**Q.** Which results are given for `Cc1ccc(C2=Nc3cccnc3S(=O)(=O)c3ccccc32)cc1` [TBPT, 6-(p-tolyl)benzo[f] pyrido[2,3-b][1,4] thiazepine 11,11-dioxide]?
**A.** remaining binding at 5 µM ([1]; 5 μM): 80%; remaining binding at 10 µM ([1]; 10 μM): 100%; remaining binding at 5 µM ([2]; 5 μM): 100%; remaining binding at 10 µM ([2]; 10 μM): 100%; remaining binding at 5 µM ([3]; 5 μM): 100%; remaining binding at 10 µM ([3]; 10 μM): 100%; remaining binding at 5 µM ([4]; 5 μM): 98%; remaining binding at 10 µM ([4]; 10 μM): 92%; remaining binding at 5 µM ([5]; 5 μM): 85%; remaining binding at 10 µM ([5]; 10 μM): 96%; remaining binding at 5 µM ([6]; 5 μM): 100%; remaining binding at 10 µM ([6]; 10 μM): 100%; remaining binding at 5 µM ([7]; 5 μM): 100%; remaining binding at 10 µM ([7]; 10 μM): 89%; remaining binding at 5 µM ([8]; 5 μM): 100%; remaining binding at 10 µM ([8]; 10 μM): 84%; remaining binding at 5 µM ([9]; 5 μM): 100%; remaining binding at 10 µM ([9]; 10 μM): 100%; remaining binding at 5 µM ([10]; 5 μM): 100%; remaining binding at 10 µM ([10]; 10 μM): 94%; remaining binding at 5 µM ([11]; 5 μM): 98%; remaining binding at 10 µM ([11]; 10 μM): 92%; remaining binding at 5 µM ([12]; 5 μM): 76%; remaining binding at 10 µM ([12]; 10 μM): 92%; remaining binding at 5 µM ([13]; 5 μM): 93%; remaining binding at 10 µM ([13]; 10 μM): 100%; remaining binding at 5 µM ([14]; 5 μM): 100%; remaining binding at 10 µM ([14]; 10 μM): 100%; remaining binding at 5 µM ([15]; 5 μM): 100%; remaining binding at 10 µM ([15]; 10 μM): 100%; remaining binding at 5 µM ([16]; 5 μM): 99%; remaining binding at 10 µM ([16]; 10 μM): 100%; remaining binding at 5 µM ([17]; 5 μM): 100%; remaining binding at 10 µM ([17]; 10 μM): 100%; remaining binding at 5 µM ([18]; 5 μM): 100%; remaining binding at 10 µM ([18]; 10 μM): 100%; remaining binding at 5 µM ([19]; 5 μM): 79%; remaining binding at 10 µM ([19]; 10 μM): 92%; remaining binding at 5 µM ([20]; 5 μM): 100%; remaining binding at 10 µM ([20]; 10 μM): 100%; remaining binding at 5 µM ([21]; 5 μM): 45%; remaining binding at 10 µM ([21]; 10 μM): 87%; remaining binding at 5 µM ([22]; 5 μM): 80%; remaining binding at 10 µM ([22]; 10 μM): 100%; remaining binding at 5 µM ([23]; 5 μM): 100%; remaining binding at 10 µM ([23]; 10 μM): 95%; remaining binding at 5 µM ([24]; 5 μM): 90%; remaining binding at 10 µM ([24]; 10 μM): 100%; remaining binding at 5 µM ([25]; 5 μM): 100%; remaining binding at 10 µM ([25]; 10 μM): 100%; remaining binding at 5 µM ([26]; 5 μM): 100%; remaining binding at 10 µM ([26]; 10 μM): 74%; remaining binding at 5 µM ([27]; 5 μM): 84%; remaining binding at 10 µM ([27]; 10 μM): 100%; remaining binding at 5 µM ([28]; 5 μM): 100%; remaining binding at 10 µM ([28]; 10 μM): 100%; remaining binding at 5 µM ([29]; 5 μM): 88%; remaining binding at 10 µM ([29]; 10 μM): 96%
